How the values were obtained:
[1] = test system: IFN-γ; test: IFN-γ Levels in Chlamydia Patients (ProCon IFN-γ assay, 492 nm); type: in vivo, human; details: urogenital chlamydiosis patients, First Group: claritomycin, doxycyclin and ofloxacin in succession; after treatment
Procedure: Among other cytokine levels, levels of IFN-γ were determined for three groups, each including fifteen (15) individuals, and compared with IFN-γ levels of the aforementioned group of fifteen (15) “normal” blood donors. The individuals of a first group were treated with 500 mg of claritomycin twice daily for ten (10) to fourteen (14) days, 100 mg of doxycyclin once daily for ten (10) days, and 200 mg of ofloxacin twice daily for ten (10) days, with the drugs having been administered in succession. The individuals of the second group received 500 mg of claritomycin twice daily for ten (10) to fourteen (14) days and one capsule of TRANSFER FACTOR PLUS three times each day for ten (10) days, with treatment with the claritomycin and TRANSFER FACTOR PLUS beginning on the same day. In the third group, each individual was treated with 500 mg of claritomycin twice daily for ten (10) to fourteen (14) days and one capsule of TRANSFER FACTOR thrice daily for ten (10) days, with administration of the claritomycin and TRANSFER FACTOR PLUS having begun on the same day. […] The following TABLE 5 lists the collective measures of IFN-γ in all three groups, as determined by use of the ProCon IFN-γ assay available from Protein Contour and photometrically measured at a wavelength of 492 nm. […]

[2] = test system: IFN-γ; test: IFN-γ Levels in Chronic Opisthorchiasis Patients (ProCon IFN-γ assay, 492 nm); type: in vivo, human; details: Second Group: praziquantel only, two weeks after treatment
Description: Forty-five (45) individuals with chronic opisthorchiasis were split into two groups: a first group including twenty-five (25) individuals and a second group including twenty (20) individuals. The individuals of both groups received conventional praziquantel treatment, an anti-parasitic, or antihelminthic, drug which is used in the treatment of opisthorchiasis and is available under the trade name BILTHRICIDE™ from Bayer AG of Leverkusen, Germany. In addition to praziquantel, two capsules of TRANSFER FACTOR PLUS were administered to the individuals of the first group following praziquantel treatment, three times daily for seven days. The individuals of the second group were only treated with praziquantel.
Levels of various cytokines, including γ-interferon (IFN-γ), antibodies, and immune complexes were determined, by known processes, for each the individuals prior to therapy and two weeks following TRANSFER FACTOR PLUS therapy in the individuals of the […] was discontinued. The following TABLE 4 lists the collective measures of IFN-γ in both groups, as determined by use of the ProCon IFN-γ assay available from Protein Contour of St. Petersburg, Russia, and photometrically measured at a wavelength of 492 nm. TABLE 4 also includes a collective measure of the IFN-γ levels of fifteen (15) “normal” blood donors.

Row | SMILES | IFN-γ level [1] | IFN-γ level [2]
1 | CC[C@H]1OC(=O)[C@H](C)[C@@H](O[C@H]2C[C@@](C)(OC)[C@@H](O)[C@H](C)O2)[C@H](C)[C@@H](O[C@@H]2O[C@H](C)C[C@H](N(C)C)[C@H]2O)[C@](C)(OC)C[C@@H](C)C(=O)[C@H](C)[C@@H](O)[C@]1(C)O [claritomycin] | 31.4 ± 6.1 | –
2 | O=C(C1CCCCC1)N1CC(=O)N2CCc3ccccc3C2C1 (centres unmarked) [praziquantel] | – | 51.4 ± 6.3

Reference: US20050233967A1, “Compositions, systems, and methods for focusing a cell-mediated immune response” (priority 2002, published 2005)
